IC50 and inhibition data for seven molecules are collected here from ChEMBL document CHEMBL3407450, “Design of new hybrid template by linking quinoline, triazole and dihydroquinoline pharmacophoric groups: A greener approach to novel polyazaheterocycles as cytotoxic agents” (Bioorg Med Chem Lett, 2015).

The term IC50 denotes the concentration that inhibits the measured activity by half. A word on the inhibition: it is the change of the read-out against control, counted positive when it falls. Read a high inhibition as a strong effect.

One assay has as its system A549. In words: Cytotoxicity against human A549 cells assessed as cell viability after 48 hrs by MTT assay. The assay is classed as functional, cell-based. The following applies: A549, 48 h.
`COc1ccc2nc(Cl)c(Cn3cc(CN4c5ccccc5C(C)=CC4(C)C)nn3)cc2c1`: the IC50 turned out to be 33.4 µM.

`CC1=CC(C)(C)N(Cc2cn(Cc3cc4cc(C)ccc4nc3Cl)nn2)c2ccccc21`: the IC50 was 29.4 µM.

For `COc1ccc2c(c1)C(C)=CC(C)(C)N2Cc1cn(Cc2cc3cc(OC)ccc3nc2Cl)nn1`, the IC50 is 30.9 µM.

For `COc1ccc2nc(Cl)c(Cn3cc(CN4c5ccc(C)cc5C(C)=CC4(C)C)nn3)cc2c1`, the IC50 turned out to be 15.5 µM.

As for `CC1=CC(C)(C)N(Cc2cn(Cc3cc4ccc(C)cc4nc3Cl)nn2)c2ccccc21`, the IC50 was determined as 11.1 µM.

`CC1=CC(C)(C)N(Cc2cn(Cc3cc4ccccc4nc3Cl)nn2)c2ccccc21`: the IC50 came out at 17.5 µM.

Consider `COc1cccc2c1C(=O)c1c(O)c3c(c(O)c1C2=O)C[C@@](O)(C(=O)CO)C[C@@H]3O[C@H]1C[C@H](N)[C@H](O)[C@H](C)O1` [DOXORUBICIN], for which the IC50 was 9.7 µM.

Another assay deals with MCF7. In words: Cytotoxicity against human MCF7 cells assessed as cell viability after 48 hrs by MTT assay. In kind it is functional, cell-based. The note with it: MCF7, 48 h. In general terms: Tetrazolium dyes change colour on reduction, which living cells bring about.
`COc1ccc2nc(Cl)c(Cn3cc(CN4c5ccccc5C(C)=CC4(C)C)nn3)cc2c1`: the IC50 turned out to be 38.7 µM.

For the molecule `CC1=CC(C)(C)N(Cc2cn(Cc3cc4cc(C)ccc4nc3Cl)nn2)c2ccccc21`, the IC50 was 30.6 µM.

`COc1ccc2c(c1)C(C)=CC(C)(C)N2Cc1cn(Cc2cc3cc(OC)ccc3nc2Cl)nn1`: the IC50 came out at 26.4 µM.

Regarding `COc1ccc2nc(Cl)c(Cn3cc(CN4c5ccc(C)cc5C(C)=CC4(C)C)nn3)cc2c1`, the IC50 is 14.3 µM.

As for `CC1=CC(C)(C)N(Cc2cn(Cc3cc4ccc(C)cc4nc3Cl)nn2)c2ccccc21`, the IC50 came to 10.8 µM.

Take `CC1=CC(C)(C)N(Cc2cn(Cc3cc4ccccc4nc3Cl)nn2)c2ccccc21`: the concentration for half-maximal inhibition (IC50) stood at 16.2 µM.

Turning to `COc1cccc2c1C(=O)c1c(O)c3c(c(O)c1C2=O)C[C@@](O)(C(=O)CO)C[C@@H]3O[C@H]1C[C@H](N)[C@H](O)[C@H](C)O1` [DOXORUBICIN], the IC50 came out at 0.8 µM.

A further assay deals with HepG2. As to the kind of experiment: Cytotoxicity against human HepG2 cells assessed as cell viability after 48 hrs by MTT assay. The note with it: HepG2, 48 h. The assay is classed as functional, cell-based.
For `COc1ccc2nc(Cl)c(Cn3cc(CN4c5ccccc5C(C)=CC4(C)C)nn3)cc2c1`, the IC50 came out at 41.2 µM.

With `CC1=CC(C)(C)N(Cc2cn(Cc3cc4cc(C)ccc4nc3Cl)nn2)c2ccccc21`, the half-maximal inhibitory concentration (IC50) came to 23 µM.

`COc1ccc2c(c1)C(C)=CC(C)(C)N2Cc1cn(Cc2cc3cc(OC)ccc3nc2Cl)nn1`: the IC50 amounted to 27.2 µM.

With `COc1ccc2nc(Cl)c(Cn3cc(CN4c5ccc(C)cc5C(C)=CC4(C)C)nn3)cc2c1`, the IC50 was 21.6 µM.

`CC1=CC(C)(C)N(Cc2cn(Cc3cc4ccc(C)cc4nc3Cl)nn2)c2ccccc21`: the half-inhibitory concentration (IC50) came out at 26.2 µM.

With `CC1=CC(C)(C)N(Cc2cn(Cc3cc4ccccc4nc3Cl)nn2)c2ccccc21`, the IC50 turned out to be 13.1 µM.

For `COc1cccc2c1C(=O)c1c(O)c3c(c(O)c1C2=O)C[C@@](O)(C(=O)CO)C[C@@H]3O[C@H]1C[C@H](N)[C@H](O)[C@H](C)O1` [DOXORUBICIN], the IC50 came to 3.5 µM.

Another assay has as its system DU-145. As to the kind of experiment: Cytotoxicity against human DU145 cells assessed as cell viability after 48 hrs by MTT assay. The note with it: DU-145, 48 h. The assay is classed as functional, cell-based.
In the case of `COc1ccc2nc(Cl)c(Cn3cc(CN4c5ccccc5C(C)=CC4(C)C)nn3)cc2c1`, the IC50 came to 34 µM.

`CC1=CC(C)(C)N(Cc2cn(Cc3cc4cc(C)ccc4nc3Cl)nn2)c2ccccc21`: the IC50 amounted to 31.3 µM.

`COc1ccc2c(c1)C(C)=CC(C)(C)N2Cc1cn(Cc2cc3cc(OC)ccc3nc2Cl)nn1`: the IC50 worked out at 28.6 µM.

In the case of `COc1ccc2nc(Cl)c(Cn3cc(CN4c5ccc(C)cc5C(C)=CC4(C)C)nn3)cc2c1`, the concentration for half-maximal inhibition (IC50) was 19.8 µM.

For the molecule `CC1=CC(C)(C)N(Cc2cn(Cc3cc4ccc(C)cc4nc3Cl)nn2)c2ccccc21`, the IC50 turned out to be 27 µM.

Take `CC1=CC(C)(C)N(Cc2cn(Cc3cc4ccccc4nc3Cl)nn2)c2ccccc21`: the IC50 came to 19.3 µM.

Turning to `COc1cccc2c1C(=O)c1c(O)c3c(c(O)c1C2=O)C[C@@](O)(C(=O)CO)C[C@@H]3O[C@H]1C[C@H](N)[C@H](O)[C@H](C)O1` [DOXORUBICIN], the IC50 is 0.5 µM.

A further assay deals with 3',5'-cyclic-AMP phosphodiesterase 4B (Homo sapiens) (UniProt Q07343). In words: Inhibition of PDE4B (unknown origin) transfected into Sf9 cells at 30 uM by PDElight HTS cAMP phosphodiesterase assay.
Sequence of 3',5'-cyclic-AMP phosphodiesterase 4B (Homo sapiens) (Q07343 whole entry): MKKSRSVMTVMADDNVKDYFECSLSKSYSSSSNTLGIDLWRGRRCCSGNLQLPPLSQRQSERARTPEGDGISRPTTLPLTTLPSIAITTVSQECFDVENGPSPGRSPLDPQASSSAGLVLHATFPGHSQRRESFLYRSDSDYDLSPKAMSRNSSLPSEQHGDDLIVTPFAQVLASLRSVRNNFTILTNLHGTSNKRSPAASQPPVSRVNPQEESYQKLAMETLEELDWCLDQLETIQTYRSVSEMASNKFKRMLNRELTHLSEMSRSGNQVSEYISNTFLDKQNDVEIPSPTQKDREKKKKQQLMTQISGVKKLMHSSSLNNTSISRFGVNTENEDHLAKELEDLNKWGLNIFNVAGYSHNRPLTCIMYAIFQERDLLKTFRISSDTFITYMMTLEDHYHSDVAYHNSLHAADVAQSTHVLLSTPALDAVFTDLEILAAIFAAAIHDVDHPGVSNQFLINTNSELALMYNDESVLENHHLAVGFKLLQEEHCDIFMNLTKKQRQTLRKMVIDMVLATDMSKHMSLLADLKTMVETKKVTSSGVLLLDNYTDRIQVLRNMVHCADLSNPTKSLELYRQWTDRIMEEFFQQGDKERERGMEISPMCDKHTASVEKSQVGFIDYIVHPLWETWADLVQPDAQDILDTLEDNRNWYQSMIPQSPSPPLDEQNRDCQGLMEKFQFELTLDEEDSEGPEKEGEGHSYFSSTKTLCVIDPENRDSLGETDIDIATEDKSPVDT
Conditions: not given
As for `COc1ccc2nc(Cl)c(Cn3cc(CN4c5ccc(C)cc5C(C)=CC4(C)C)nn3)cc2c1`, the inhibition was 88%.

For the next assay, the target named is 3',5'-cyclic-AMP phosphodiesterase 4D (Homo sapiens) (UniProt Q08499). As to the kind of experiment: Inhibition of PDE4D (unknown origin) transfected into Sf9 cells at 30 uM by PDElight HTS cAMP phosphodiesterase assay.
Sequence of 3',5'-cyclic-AMP phosphodiesterase 4D (Homo sapiens) (Q08499 whole entry): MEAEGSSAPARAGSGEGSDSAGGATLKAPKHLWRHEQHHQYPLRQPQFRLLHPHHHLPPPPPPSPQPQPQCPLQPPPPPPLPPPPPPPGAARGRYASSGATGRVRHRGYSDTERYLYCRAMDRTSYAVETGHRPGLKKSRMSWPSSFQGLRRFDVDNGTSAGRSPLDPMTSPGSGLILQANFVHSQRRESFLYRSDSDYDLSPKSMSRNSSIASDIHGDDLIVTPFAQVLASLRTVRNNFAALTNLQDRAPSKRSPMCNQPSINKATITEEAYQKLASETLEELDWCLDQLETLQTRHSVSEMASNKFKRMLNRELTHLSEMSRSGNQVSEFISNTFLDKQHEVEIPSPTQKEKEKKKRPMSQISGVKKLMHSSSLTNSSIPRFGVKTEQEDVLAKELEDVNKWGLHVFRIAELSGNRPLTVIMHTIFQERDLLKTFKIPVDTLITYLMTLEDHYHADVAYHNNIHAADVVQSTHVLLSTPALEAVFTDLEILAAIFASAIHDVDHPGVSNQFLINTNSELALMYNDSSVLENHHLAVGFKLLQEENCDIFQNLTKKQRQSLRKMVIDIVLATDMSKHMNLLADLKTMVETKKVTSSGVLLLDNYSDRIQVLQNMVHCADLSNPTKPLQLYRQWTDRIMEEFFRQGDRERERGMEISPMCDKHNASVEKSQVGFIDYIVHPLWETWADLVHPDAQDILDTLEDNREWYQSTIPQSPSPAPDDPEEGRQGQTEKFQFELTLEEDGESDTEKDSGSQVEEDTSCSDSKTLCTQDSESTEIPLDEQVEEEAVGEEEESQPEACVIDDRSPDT
Conditions: not given
In the case of `COc1ccc2nc(Cl)c(Cn3cc(CN4c5ccc(C)cc5C(C)=CC4(C)C)nn3)cc2c1`, the inhibition was 52%.
